The kcat is the number of substrate molecules converted per active site and unit of time at saturation. The term Ki denotes the dissociation constant of the complex between target and ligand, obtained from inhibition or displacement. The term IC50 denotes the concentration that inhibits the measured activity by half. What is called Km is the substrate concentration at which the rate is half of its maximum.

The text below walks through data of patent US20090326007A1, “Compounds and methods for modulating sir2 protein activity” (priority 2007, published 2009).

“Also recorded” adds a separate entry of the source. Like-named read-outs stand apart in the source and are kept apart here. Some results are limits rather than exact numbers.

In one assay the target is T1, yHst2 I117F mutant (Saccharomyces cerevisiae, UniProt P53686, I117F).
T1 construct: Point mutations in yHst2 (1-294) were generated from the pRSET-A plasmid; His6 (N); made in house
T1 sequence (P53686 1-294 I117F): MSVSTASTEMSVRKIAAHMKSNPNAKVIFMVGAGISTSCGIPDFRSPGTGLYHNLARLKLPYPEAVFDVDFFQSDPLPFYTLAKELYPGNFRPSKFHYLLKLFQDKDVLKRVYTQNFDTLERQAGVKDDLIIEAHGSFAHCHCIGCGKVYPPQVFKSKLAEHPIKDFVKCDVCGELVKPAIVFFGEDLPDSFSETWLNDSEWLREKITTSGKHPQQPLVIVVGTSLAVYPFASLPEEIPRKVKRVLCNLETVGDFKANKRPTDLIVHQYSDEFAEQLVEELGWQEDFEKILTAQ
Put plainly: Kinetic assay, deacetylase fluorescent activity assay kit, I117F mutant. It is filed as biochemical. An excerpt:
(§1) Protein Preparation, Crystallization and Structure Determination.
(§2) Kinetic Assays. […] Data taken in triplicate were fitted to the equation l/v=(Km/Vmax)(1/[S])+1/Vmax, using a root mean least squares approach in the form of a double reciprocal Lineweaver-Burk plot where the x-intercept is equal to −l/Km. […] The slopes of the Dixon Plot were replotted versus 1/[NAD^+], and the slope of the corresponding line was set equal to Km/(Vmax*Ki), in order to calculate Ki.

The next assay concerns the target T2, yHst2 I117V mutant (Saccharomyces cerevisiae, UniProt P53686, I117V).
T2 construct: Point mutations in yHst2 (1-294) were generated from the pRSET-A plasmid; His6 (N); made in house
Description: Kinetic assay, deacetylase fluorescent activity assay kit, I117V mutant. It is filed as biochemical.
Text: as §1, §2

For assay [1], the target named is T3, Hst2 (Saccharomyces cerevisiae, UniProt P53686). Description: Reversibility assay. It counts as biochemical. The conditions noted are these: preincubation at 10x IC50, 100-fold dilution.
T3 sequence (P53686 1-294): as the sequence (P53686 1-294 I117F) above, with F117I counted along it
Description: Reversibility Assay. Each of the inhibitor scaffolds identified in the HTS was tested to determine whether they were reversible, slowly reversible or irreversible inhibitors of Hst2. The reversibility of each compound was identified using the fluorigenic assay described herein.
To aid in the determination of the mechanism of inhibition for each newly identified inhibitor and to assay reversibly of inhibitor binding to the enzyme, it was tested whether or not inhibitor binding to the Sir2 enzyme was rapidly reversible, slowly reversible or irreversible. […] Then, the enzyme was diluted 100-fold into reaction wells with both substrates, and the amount of product formation over time was monitored (FIG. 2).
Another assay has as its target T4, human SIRT2 (Homo sapiens, UniProt Q8IXJ6).
T4 sequence (Q8IXJ6 1-352 isoform Q8IXJ6-2): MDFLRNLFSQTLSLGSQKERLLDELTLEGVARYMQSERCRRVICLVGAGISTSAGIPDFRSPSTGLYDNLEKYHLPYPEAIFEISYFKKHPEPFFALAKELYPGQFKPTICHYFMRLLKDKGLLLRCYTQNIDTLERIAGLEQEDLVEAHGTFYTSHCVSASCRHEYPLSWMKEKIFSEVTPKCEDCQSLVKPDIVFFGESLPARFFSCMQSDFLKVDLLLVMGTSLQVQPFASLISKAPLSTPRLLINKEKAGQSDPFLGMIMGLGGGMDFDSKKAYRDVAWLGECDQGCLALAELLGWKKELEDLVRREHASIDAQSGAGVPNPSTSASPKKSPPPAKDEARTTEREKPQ
Description: Inhibition assay against human SIRT2 (fluorigenic). Particulars: for inhibitory activity against human SIRT2 (in words): 50 or 100 μM compound.

Assay [2] addresses T3, Hst2. Put plainly: SAR analysis, fluorigenic assay at 50 and 500 μM. It counts as biochemical. The conditions noted are these: relative to control. The text has this: Structure Activity Relationship (SAR) Analysis.
The target in assay [3] is T3, Hst2. Description: Competition assay (inhibition mode versus NAD+ and acetyl-lysine substrate). The conditions noted are these: for Ki: read-out: Ki. It is filed as biochemical. On the procedure:
Competition Assay. […] The fluorigenic assay described above was used with a fixed enzyme concentration of 1 μM. When competition with NAD^+ was being tested, the FLUOR DE LYS-SIRT1 deacetylase substrate was held at a constant concentration of 100 μM and the NAD^+ was titrated from ⅓-5× KmNAD+ (5-80 μM). […] The inhibitors were titrated from ˜½-several times their estimated Ki as indicated. The reaction time was 15 minutes, and each condition was tested in duplicate. The Km, kcat and kcat/Km values were determined by direct fit of the data in SIGMAPLOT (Systat Software, Point Richmond, Calif.) to the Michealis-Menten equation. The Ki and Kis (the slope and intercept inhibition constants, respectively) and the competition type were also determined by a direct fit in SIGMAPLOT to both partial and full competitive, noncompetitive, uncompetitive and mixed competition models. Best-fit models were determined by several statistical methods including R^2, AICs and Sy.x as well as empirical evaluation of α and β values.
To determine the mechanism of inhibition of the compounds identified by HTS and to gain insight as to where these compounds may bind to the enzyme, inhibition modes were determined by varying each of the substrates with the other maintained at a fixed, saturating concentration (Table 11).

Another assay concerns the target T5, human SIRT3 (Homo sapiens, UniProt Q9NTG7).
T5 sequence (Q9NTG7 1-399): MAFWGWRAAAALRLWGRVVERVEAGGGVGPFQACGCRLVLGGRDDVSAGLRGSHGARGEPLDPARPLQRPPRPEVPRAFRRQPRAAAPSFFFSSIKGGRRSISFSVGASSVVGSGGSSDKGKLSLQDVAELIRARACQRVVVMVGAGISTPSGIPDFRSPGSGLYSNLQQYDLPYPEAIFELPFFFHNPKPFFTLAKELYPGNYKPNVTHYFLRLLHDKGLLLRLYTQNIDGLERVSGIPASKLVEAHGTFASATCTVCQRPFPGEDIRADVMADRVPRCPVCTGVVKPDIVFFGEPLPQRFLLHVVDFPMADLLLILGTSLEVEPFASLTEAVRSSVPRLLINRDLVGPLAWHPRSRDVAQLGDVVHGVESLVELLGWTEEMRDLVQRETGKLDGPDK
Description: Inhibition assay against human SIRT3 (fluorigenic).

Assay [4] deals with T3, Hst2. Description: IC50 determination, fluorigenic deacetylase assay, Hst2.
Description: (§3) IC50 Determination. […] The dose-response curves were then fit to one-site competition or sigmoidal-dose response curves as appropriate in [sequence] PRISM (GraphPad Software, La Jolla, Calif.) and the IC50 was determined. Three independent IC50 measurements were performed for each compound and the average and standard deviation are reported.
(§4) The resulting deacetylase activity for the three experiments was averaged and reported as a percentage relative to control wells containing no inhibitor.
Another assay concerns the target T6, full-length human SIRT1 (Homo sapiens, UniProt Q96EB6).
T6 sequence (Q96EB6 1-747): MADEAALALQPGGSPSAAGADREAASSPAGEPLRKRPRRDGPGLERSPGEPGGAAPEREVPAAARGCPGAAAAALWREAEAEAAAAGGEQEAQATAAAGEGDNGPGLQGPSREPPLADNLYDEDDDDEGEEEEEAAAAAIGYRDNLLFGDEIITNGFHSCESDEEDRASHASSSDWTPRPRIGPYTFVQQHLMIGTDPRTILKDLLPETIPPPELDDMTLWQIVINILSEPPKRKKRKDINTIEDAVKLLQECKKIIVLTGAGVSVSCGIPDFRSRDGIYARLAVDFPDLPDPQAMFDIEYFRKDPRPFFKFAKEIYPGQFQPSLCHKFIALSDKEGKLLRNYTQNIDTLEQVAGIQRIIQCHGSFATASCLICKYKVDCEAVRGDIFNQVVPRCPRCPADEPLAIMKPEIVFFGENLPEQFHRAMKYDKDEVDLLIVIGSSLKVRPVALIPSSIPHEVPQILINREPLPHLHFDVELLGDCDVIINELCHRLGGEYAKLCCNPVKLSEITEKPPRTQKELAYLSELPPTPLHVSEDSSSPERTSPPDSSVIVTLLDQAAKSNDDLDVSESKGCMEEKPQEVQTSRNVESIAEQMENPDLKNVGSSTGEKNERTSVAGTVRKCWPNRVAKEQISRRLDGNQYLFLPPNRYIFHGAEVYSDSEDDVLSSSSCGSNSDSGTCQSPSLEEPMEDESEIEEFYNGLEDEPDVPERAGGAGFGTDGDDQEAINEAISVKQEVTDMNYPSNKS
Description: IC50 determination, fluorigenic deacetylase assay, FL SIRT1. The conditions noted are these: read-out: SIRT1 IC50; Table 5; 240 μM NAD+, 200 μM substrate, 1 μM FL SIRT1, 15 min.

The target in assay [5] is T3, Hst2.
Description: as §3, §4
In another assay the test system is trypsin. Put plainly: Control for inhibition of the trypsin assay developer. It counts as biochemical. An excerpt: These compounds were not pursued further.
The target in a further assay is Hst2 (1-294) (Saccharomyces cerevisiae, UniProt P53686). Description: High throughput screen for Hst2 effectors in the presence of nicotinamide (fluorimetric). Particulars: Table 3, activators, nicotinamide present.
Chain of Hst2 (1-294) (P53686 1-294): as the sequence (P53686 1-294 I117F) above, with F117I counted along it
The target in a further assay is T7, wild-type yHst2 (Saccharomyces cerevisiae, UniProt P53686).
T7 construct: The 64-residue C-terminal deletion construct of yHst2 (residues 1-294) and point mutants were purified; His6 (N); made in house
T7 sequence (P53686 1-294): as the sequence (P53686 1-294 I117F) above, with F117I counted along it
Description: Kinetic assay, deacetylase fluorescent activity assay kit, wild-type enzyme. Particulars: read-out: Km for NAD+. It is filed as biochemical.
Text: as §2

The next assay addresses T8, yHst2 D118N mutant (Saccharomyces cerevisiae, UniProt P53686, D118N).
T8 construct: Point mutations in yHst2 (1-294) were generated from the pRSET-A plasmid; His6 (N); made in house
Description: Kinetic assay, deacetylase fluorescent activity assay kit, D118N mutant. It is filed as biochemical.
Text: as §1, §2

Where [6] appears, read: read-out: percent of residual enzyme activity, SIRT2.
Setting [7] is: substrate NAD+ varied, acetyl-lysine substrate 100 μM.
[8] abbreviates: substrate acetyl-lysine varied, NAD+ 160 μM.
[9] abbreviates: read-out: percent of residual enzyme activity, SIRT3.
The mark [10] stands for this setting: read-out: Hst2 IC50, Table 5, 160 μM NAD+, 100 μM substrate, 1 μM Hst2, 15 min.

T8 sequence (P53686 1-294 D118N): as the sequence (P53686 1-294 I117F) above, with F117I, D118N counted along it
T2 sequence (P53686 1-294 I117V): as the sequence (P53686 1-294 I117F) above, with F117V counted along it
Description for Hst2 (1-294): High Throughput Screening (HTS). A high throughput screening protocol based on the SIRT1 Fluorimetric Activity Assay/Drug Discovery Kit was developed (BIOMOL International, Inc., Plymouth Meeting, Pa.). […] One hundred nanoliters of either a DMSO control or a compound from the small molecule screening library was added to each well by pinning. […] After 45 minutes, each plate was read on a fluorescence plate reader at an excitation wavelength of 360 nm and an emission wavelength of 460 nm. […] The fluorescence signal from each well was normalized to the DMSO controls on each 384-well plate and compared to a DMSO control population based on the following equation:
where χ is the fluorescence signal of the well, μ is the mean of the control (DMSO) population and σ is the standard deviation of the control population. […]
Description for full-length human SIRT1: Cells were harvested and lysed by sonication in buffer containing 50 mM Tris, pH 7.5, 200 mM NaCl, 5 mM imidizole, 10 mM β-mercaptoethanol (BME) and 0.1 mg/mL PMSF. Soluble FL SIRT1 was purified by Ni-NTA (Qiagen, Valencia, Calif.) in a buffer containing 50 mM Tris, pH 7.5, 300 mM NaCl, 10 mM BME, 5% glycerol and 30-600 mM imidizole followed by SUPERDEX-200 gel filtration in buffer containing 50 mM Tris, pH 7.5, 150 mM NaCl, and 10 mM BME. FL SIRT1 eluted between the 670 kDa and 158 kDa globular protein standards. Since SIRT1 is known to aggregate after several days at 4° C., the protein was aliquoted and frozen at −80° C. for use in fluorigenic assays.
as §3
Description for human SIRT2: (§5) Human recombinant SIRT3 was purchased from Enzo Life Sciences.
(§6) Inhibition Assay Against Human SIRT2 and SIRT3. […] Two independent measurements were performed for each compound and the average and standard deviation are reported.
Description for human SIRT3: as §5, §6

In the case of `NC(=O)c1cccnc1` [Nicotinamide (1), Nicotinamide, reference compound], at yHst2 I117F mutant (I117F mutant versus wild-type), the “increase of Kii for nicotinamide over wild-type enzyme” value is listed as approximately 6 fold. In addition, at yHst2 I117V mutant (I117V mutant versus wild-type), the “decrease of Kii for nicotinamide over wild-type enzyme” value is approximately 2.5 fold. The “slope of progress curve with respect to the enzyme control” value at Hst2 [1] turned out to be 30%. Moreover, on human SIRT2 (setting [6]), the remaining activity at 100 µM was determined as 26 ± 1.4%.

Turning to `CCc1ccc(OCCCC(=O)Oc2ccc3c(c2)oc(=O)c2ccccc23)cc1` [Compound 12a, 4-(4-Ethyl-phenoxy)-butyric acid 6-oxo-6H-benzo[c]chromen-3-yl ester], the activity at 50 µM at Hst2 [2] (Table 8, 50 μM compound) was less than 1%. For the same compound, the activity at 500 µM at Hst2 [2] (Table 8, 500 μM compound, read-out: % Activity 500) is less than 1%. In addition, the figures for the kcat on Hst2 [3] (substrate NAD+ varied) and on Hst2 [3] (substrate acetyl-lysine varied) were 0.025 ± 0.005 s⁻¹ and 0.0163 ± 0.00067 s⁻¹, respectively. The results for the “Inhibition Mechanism” value at Hst2 [3] (setting [7]) and on Hst2 [3] (setting [8]) were “fully non-competitive; also recorded: NC (full)” and “partial non-competitive”, respectively. In addition, the Ki at Hst2 [3] (substrate NAD+ varied) came to 1.2 ± 0.2 µM; on Hst2 [3] (substrate acetyl-lysine varied), 6.3 ± 1.7 µM. At human SIRT2, the “inhibitory activity against human SIRT2 (in words)” value is reported as “potent inhibitor”. In addition, the figures for the remaining activity at 50 µM on human SIRT2 (setting [6]) and at human SIRT3 (setting [9]) were 2.4 ± 0.3% and 89 ± 3.3%, respectively. Also, the “IC50 values (range in words)” value on Hst2 [4] (Table 5) was “low micromolar”. The values for the IC50 at Hst2 [4] (setting [10]) and at full-length human SIRT1 were 6.5 ± 1.3 µM and 6 ± 0.4 µM, respectively.

Turning to `COCC#CC1c2cc(O)c(OC)cc2CCN1C` (stereo not drawn) [Compound 15a, 6-Methoxy-1-(3-methoxy-prop-1-ynyl)-2-methyl-1,2,3,4-tetrahydro-isoquinolin-7-ol], the activity at 500 µM at Hst2 [2] (Table 7, 500 μM compound, read-out: % Activity 500 μM) came out at 5%. Further, the results for the catalytic constant (kcat) on Hst2 [3] (substrate NAD+ varied) and at Hst2 [3] (substrate acetyl-lysine varied) were 0.0137 ± 0.00233 s⁻¹ and 0.0167 ± 0.0033 s⁻¹, respectively. The “Inhibition Mechanism” value at Hst2 [3] (setting [7]) is “fully mixed”; at Hst2 [3] (setting [8]), “fully non-competitive; also recorded: NC (full)”. On Hst2 [3] (with respect to NAD+), the “α (mixed inhibition model)” value is listed as 2.6. Moreover, the “IC50 lower than that of compound 15b” value at Hst2 [5] is “about 2 fold”. Also, the “inhibitory activity against human SIRT2 (in words)” value against human SIRT2 is given as “only weak inhibitory activity”. Moreover, the remaining activity at 100 µM is 92.1 ± 1.5% on human SIRT2 (setting [6]) and 96.4 ± 0.5% on human SIRT3 (setting [9]). Moreover, the “inhibitory activity against human SIRT3 (in words)” value against human SIRT3 (50 or 100 μM compound) is listed as “only weak inhibitory activity”. Moreover, the IC50 on full-length human SIRT1 was 570 ± 200 µM.

On to “(Pyrido[2,3-a]5-nitropyrrolo[3,4-c]carbazole-5,7(6H)-dione) (cyclopentadienyl)monocarbonyl ruthenium [Compound 16b]”, for which the inhibition of trypsin entry with trypsin is “did not inhibit trypsin”. Moreover, the IC50 was determined as 24 ± 16 µM against Hst2 [4] (Table 4, Hst2) and 24 ± 16 µM at Hst2 [4] (setting [10]). Further, the “IC50 values (range in words)” value on Hst2 [4] (Table 5) is given as “low micromolar”.

As to `CC1(C)CC(=O)C2=C(C1)NC1=C(C(=O)CC(C)(C)C1)C2c1cccc(F)c1`, the “Fold Activation” value on Hst2 (1-294) was 2.2 Fold.

“Pyrido[2,3-a]4-nitropyrrolo[3,4-c]carbazole-5,7(6H)-dione) (cyclopentadienyl) monocarbonyl ruthenium [Compound 16a]”: the inhibition of trypsin entry in the assay with trypsin is recorded as “did not inhibit trypsin”. Further, the IC50 at Hst2 [4] (Table 4, Hst2) was determined as 36 ± 12 µM; at Hst2 [4] (setting [10]) it was 36 ± 12 µM. Also, the “IC50 values (range in words)” value against Hst2 [4] (Table 5) is “low micromolar”.

With `NC(=O)c1ccc[n+]([C@@H]2O[C@H](COP(=O)([O-])OP(=O)(O)OC[C@H]3O[C@@H](n4cnc5c(N)ncnc54)[C@H](O)[C@@H]3O)[C@@H](O)[C@H]2O)c1` [NAD^+], the Km on wild-type yHst2 was 16.1 µM; at yHst2 I117F mutant (I117F mutant, read-out: Km for NAD+), 25.8 µM; at yHst2 I117V mutant (I117V mutant, read-out: Km for NAD+), 25.5 µM; on yHst2 D118N mutant (D118N mutant, read-out: apparent Km for NAD+), 454 µM. The “increased Km for NAD+ compared to wild-type enzyme” value on yHst2 I117F mutant (I117F mutant versus wild-type) is “less than 2 fold”. Also, the “increase of Km for NAD+ over wild-type” value on yHst2 D118N mutant (D118N mutant versus wild-type) is “more than 28 fold”.
